Residues, ends and D or L forms follow the SMILES beside them.
How the values were obtained:
CD8+ T cells = assay: Gamma interferon ELISPOT, CD8+ T cells after in vitro peptide stimulation; format: cell-based, human; details: healthy HLA A0201 donors, peptide-pulsed T2 targets
[1] = biological target: T1, HLA-A0201 molecules on T2 cells (Homo sapiens, UniProt P04439, D140Y/D185E/D98H/E176V/E277Q/G131W/G231S/I119V/I121R/I166T/I218V/L300P/L318F/N151K/N90K/P208A/P217A/Q86G/Q94H/R138H/R169H/T345S); assay: T2 assay for peptide binding to HLA A0201; details: for binding to HLA A0201 molecules in T2 assay: bcr-abl b3a2 and b2a2 peptides
T1 construct: increase in the level of surface HLA-A0201 recognizable by specific mAb such as BB7.2; endogenous in cells; host or cells: T2 cells (human, TAP-deficient, HLA-A0201+)
Protocol: T2 cells (TAP−, HLA-A0201 +) were incubated overnight at 27° C. at 1×10E6 cells/ml in FCS-free RPMI medium supplemented with 5 μg/ml human β2 m (Sigma, St Louis, Mo.) in the absence, i.e., negative control, or presence of either a positive reference tyrosinase peptide or test peptides at various final concentrations of 50, 10, 1, and 0.1 μg/ml. Following a 4 h incubation with 5 μg/ml brefeldin A (Sigma), T2 cells were labeled for 30 min at 4° C. with a saturating concentration of anti-HLA-A2.1 (BB7.2) mAb, then washed twice. The cells then were incubated for 30 min at 4° C. with a saturating concentration of FITC-conjugated goat IgG F(ab′)2 anti-mouse Ig (Caltag, South San Francisco, Calif.), washed twice, fixed in PBS/1% paraformaldehyde and analyzed using a FACS Calibur cytofluorometer (Becton Dickinson, Immunocytometry systems, San Jose, Calif.).
The mean intensity of fluorescence (MIF) observed for each peptide concentration, after subtraction of the MIF observed without peptide, was used as an estimate of peptide binding. Stabilization assays were performed similarly. Following initial evaluation of peptide binding at time 0, cells were washed in RPMI complete medium to remove free peptides and incubated in the continuous presence of 0.5 μg/ml brefeldin-A for 2, 4, 6, and 8 hours. The amount of stable peptide-HLA-A2.1 complexes was estimated as described above by indirect immunofluorescence analysis. The half time of complexes is an estimate of the time required for a 50% reduction of the time 0 mean intensity of fluorescence value.
The immunogenicity of MHC class I-restricted peptides requires the capacity to bind and stabilize MHC class I molecules on the live cell surface. Moreover the computer prediction models above have only 60-80% predictive accuracy. Direct measurement of the strength of the interaction between the peptides and the HLA-A0201 molecule was made using a conventional binding and stabilization assay that uses the antigen-transporting deficient (TAP2-) HLA-A0201 human T2 cells. T2 cells lack TAP function and consequently are defective in properly loading class I molecules with antigenic peptides generated in the cytosol. The association of exogenously added peptides with thermolabile, empty HLA-A2 molecules stabilizes them and results in an increase in the level of surface HLA-A0201 recognizable by specific mAb such as BB7.2.

CD3+ T cells = assay: Gamma interferon ELISPOT, CD3+ T cells after in vitro peptide stimulation; format: cell-based, human; details: healthy HLA A0201 donors
[2] = system: HLA matched chronic myelogenous leukemia cell lines or CML blasts; details: T cells generated with analogue peptide
Protocol: Supernatant fluids were harvested and radioactivity was measured in a gamma counter. Percent specific lysis was determined from the following formula: 100×[(experimental release minus spontaneous release)/(maximum release minus spontaneous release)].

HLA A0201 = HLA A0201 (Homo sapiens, UniProt P04439, D140Y/D185E/D98H/E176V/E277Q/G131W/G231S/I119V/I121R/I166T/I218V/L300P/L318F/N151K/N90K/P208A/P217A/Q86G/Q94H/R138H/R169H/T345S); assay: BIMAS predicted binding score for HLA A0201; details: p210F versus native CMLA2
Protocol: The synthetic peptide analogue segments are designed by making one or two amino acid substitutions in anchor or auxiliary residues. Although the native peptides particularly described herein are nonamers encompassing the anchor or auxiliary residues, analogues may be designed having about 70% to about 130% of the amino acids in the native peptide. In the instant invention the synthetic peptide analogues may have about 8-12 amino acids. Such substitutions are determined by a bioinformatic model system (BIMAS) which uses a matrix approach to predict binding and ranks the peptides based on predicted binding to the HLA molecule. The amino acid sequences and predicted score for binding to HLA A0201 and HLA A0301 are generated by online software BIMAS available at http://bimas.dcrt.nih.gov/cgi-bin/molbio/ken parker comboform and […] available at http://syfpeithi.bmi-heidelberg.com/.
Based on this information and by using the software of the Bioinformatics & Molecular Analysis Section (National Institutes of Health, Washington, D.C.) available at http://bimas.dcrt.nih.gov/cgi-bin/molbio/ken parker comboform. This software ranks 9-mer or 10-mer peptides on a predicted half-time dissociation coefficient from HLA class I molecules (Pinilla, et al. Curr Opin Immunol, 11(2): p. 193-202 (1999)). […]

## KQSSKALQV (analogue peptide p210A)
CD8+ T cells
  immune response, IFN gamma secretion: No immune response could be generated

## TLFKQSSKV (analogue peptide p210D)
CD8+ T cells
  immune response, IFN gamma secretion: produced an immune response in some of the donors tested

## SSKALQRPV (native peptide CMLA2) [reference compound]
[1]
  binding to HLA A0201 molecules in T2 assay: weak binder
[1]; listed as CML A2
  binding to HLA A0201 molecules in T2 assay: natural weak binder

## YLINKEEAV (analogue peptide b3a2 A4)
CD3+ T cells
  immune response, gamma interferon secretion: generated an immune response in two healthy donors

## CC(C)C[C@H](NC(=O)[C@H](CC(C)C)NC(=O)[C@@H](N)CCCCN)C(=O)N[C@@H](CCC(N)=O)C(=O)N[C@@H](CCCNC(=N)N)C(=O)N1CCC[C@H]1C(=O)N[C@H](C(=O)N[C@@H](C)C(=O)N[C@H](C(=O)O)C(C)C)C(C)C [p210C] (H-KLLQRPVAV-OH; N-terminus and C-terminus assumed)
[2]
  cytotoxicity against CML cells expressing b3a2 or b2a2: Significant cytotoxicity was generated

## YLFKQSSKV (analogue peptide p210E)
CD8+ T cells
  immune response, IFN gamma secretion: produced an immune response in some of the donors tested

## CC[C@H](C)[C@H](NC(=O)[C@H](CC(C)C)NC(=O)[C@@H](N)Cc1ccc(O)cc1)C(=O)N[C@@H](CC(N)=O)C(=O)N[C@@H](CCCCN)C(=O)N[C@@H](CCC(=O)O)C(=O)N[C@@H](CCC(=O)O)C(=O)N[C@@H](C)C(=O)N[C@@H](CC(C)C)C(=O)O [b3a2 A3, YLINKEEAL] (H-YLINKEEAL-OH; N-terminus and C-terminus assumed)
[2]
  cytotoxicity against CML cells expressing b3a2 or b2a2: Significant cytotoxicity was generated

## YLGATLKGV (analogue peptide WT-1 D1)
[1]; WT-1 peptides
  binding to HLA A0201, thermostabilization on T2: significantly higher level of binding to HLA-A0201 over WT1-D

## YLKALQRPV (analogue peptide p210F)
HLA A0201
  BIMAS prediction improvement: 700 fold
CD8+ T cells
  immune response, IFN gamma secretion: generated a more consistent and higher immune-responses
[1]
  binding to HLA A0201 molecules in T2 assay: excellent avidity for HLA A0201 molecules

## KLSSKALQV (analogue peptide p210B)
CD8+ T cells
  immune response, IFN gamma secretion: No immune response could be generated

## YLINKVEAL (analogue peptide b3a2 A5)
CD3+ T cells
  immune response, gamma interferon secretion: generated an immune response in two healthy donors

Reference: patent US7488718B2, “Synthetic HLA binding peptide analogues and uses thereof” (Sloan Kettering Institue for Cancer Research, priority 2003, dated 2009)
